Test results published in publication PMC7308271, “Discovery of a new class of orthosteric antagonists with nanomolar potency at extrasynaptic GABAA receptors” (Scientific Reports, 2020).

Columns and labels:
[1] = system: tonic currents in dentate gyrus granule cells; conditions: rat slice recordings, cited from earlier work
human BGT1 = molecular target: T1, human BGT1 (Homo sapiens, UniProt P48065); experiment: Fluorescence interference control: BGT1-mediated GABA uptake in the FMP assay; assay type: cell-based; conditions: 110 μM GABA uptake by BGT1 in δ-HEK cells; 2027 at 30, 10, 3 μM
T1 construct: expressed in transfected cells; host or cells: δ-HEK cells, transient transfection (pcDNA5/FRT)
T1 sequence (P48065 1-614): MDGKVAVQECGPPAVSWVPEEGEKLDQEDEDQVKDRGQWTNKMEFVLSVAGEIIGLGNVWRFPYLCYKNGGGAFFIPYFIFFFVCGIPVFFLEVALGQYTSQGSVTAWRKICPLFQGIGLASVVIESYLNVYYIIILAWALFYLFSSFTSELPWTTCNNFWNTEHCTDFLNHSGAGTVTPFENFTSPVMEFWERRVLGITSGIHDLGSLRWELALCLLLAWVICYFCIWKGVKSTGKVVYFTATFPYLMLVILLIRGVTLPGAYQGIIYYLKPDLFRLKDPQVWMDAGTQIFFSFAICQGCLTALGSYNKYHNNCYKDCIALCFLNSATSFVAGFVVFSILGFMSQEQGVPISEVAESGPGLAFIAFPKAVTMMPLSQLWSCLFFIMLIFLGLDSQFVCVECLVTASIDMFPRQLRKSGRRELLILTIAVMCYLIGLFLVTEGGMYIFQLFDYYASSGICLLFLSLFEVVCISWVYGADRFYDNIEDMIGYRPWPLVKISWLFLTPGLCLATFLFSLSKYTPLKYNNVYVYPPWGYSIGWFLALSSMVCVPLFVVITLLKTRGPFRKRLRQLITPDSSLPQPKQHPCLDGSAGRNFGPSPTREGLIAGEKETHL
From the text: (§1) To express recombinant GABAΑ receptors human α1, α2, α3, α5, α6, β2, γ2 (pcDNA3.1/Zeo) and α4, β1 (pUNIV)[26] subunit cDNA were transiently transfected into either δ-HEK or HEK background cells. δ-HEK cells were transfected with α- and β-subunits in a 1:1 ration whereas HEK background cells were transfected with α-, β- and γ-subunits in a 1:1:2 ratio. Human BGT1 (pcDNA5/FRT)[43] was transiently transfected into the δ-HEK cell line. δ-HEK cells transfected for whole-cell patch-clamp recordings were co-transfected with green fluorescent protein (GFP) as well as α- and β-subunits in a 0.5:1:1 ratio (0.8 μg + 1.6 μg + 1.6 μg in a 6 cm dish) in order to identify transfected cells. The transfection was carried out using Polyfect as transfection reagent according to the manufactures protocol expect for using half the recommended volume of Polyfect.
assay (perf ormed essentially as previously described in methods section and based on Al-Khawaja et al.).
in d-HEK cells was not decreased/quenched by 2027 in any of the tested concentrations. Data are shown as
means ± SD f rom a representative expe riment perf orme d in triplicate (n=2).
BGT1 expressed in HEK-δ cells

[2] = molecular target: T2, human α4β1δ GABAΑ receptor (Homo sapiens, UniProt P18505+P48169); experiment: FMP assay at α4β1δ GABAA receptors in HEK cells (screening, concentration-inhibition, Schild analysis); assay type: cell-based; conditions: HEK293, read-out: inhibition of the GABA EC80 signal, primary screening, 10 μM, singlicates
T2 construct: expressed in transfected cells; host or cells: δ-HEK (HEK293 Flp-In stably expressing human δ), transiently transfected with α4 and β1 1:1
From the text: We have previously established a FLIPR membrane potential (FMP) assay to study recombinant δ-containing GABAΑRs entailing a HEK293 Flp-In cell line stably expressing the human δ-subunit which is suitable for co-transfection with any desired α/β subunits. Initially, we validated the applicability of the FMP assay for efficient compound screening in 96-well microtiter plates using the human α4β1δ GABAΑR heterologously expressed in HEK cells. This receptor was chosen as we have previously shown this system to be reliable in expressing δ-containing receptors. To this end, we determined the Z′-factor, which is a statistical factor used to measure the suitability of an assay for high throughput screening.
Thus, we went on to further characterize 2027 by making a full concentration-inhibition curve.
HEK293 cells were maintained in DMEM containing GlutaMAX-I, supplemented with 10% FBS and 1% penicillin-streptomycin and incubated at 37 °C and a humidity of 5% CO2. For expression of δ-containing GABAΑ receptors, a HEK293 Flp-In^ΤΜ cell line stably expressing the human GABAΑ δ-subunits (referred to as δ-HEK) was used and the γ-containing subtypes was expressed in a background HEK293 Flp-In^ΤΜ cell line stably expressing the G-protein coupled peptide receptor NPBWR2 (referred to as HEK background)[26], both positively selected for using 200 μg/mL hygromycin B. α1β2γ2 receptors were stably expressed in a HEK293 cell line maintained as above but with no selection (gift from Marianne L. Jensen, Neurosearch).
as §1
The FMP assay was performed as previously described with a few modifications. Briefly, HEK cells were transfected as described[26] and 16–20 hours later plated (50,000 cells/well in DMEM medium) into clear-bottomed black 96-well plates coated with poly-D-lysine and the assay performed 20–28 hours later. The assay protocol including the FMP blue dye incorporation into membranes was exactly as described in Falk-Petersen et al.[26]. […] Data was obtained as changes in fluorescence units (∆RFU) by measuring emission at 560 nm caused by excitation at 530 nm. Unless otherwise mentioned in the text or figure legends experiments were performed in at least three independent experiments each using three technical replicates.
Data obtained in the FMP assay are given as relative changes in fluorescence units (ΔRFU) by subtracting the average of the baseline fluorescence signal from the peak fluorescence signal after compound addition. All raw traces were inspected manually and peak signals resulting from compound/buffer addition together with signal artefacts were omitted from the analysis.
The concentration-response curves obtained in the FMP assay for both agonists (determining EC50 values) and antagonists (determining IC50 values) were fitted using the four-parameter concentration-response model: Response=bottom+top−bottom/1+10^[(logEC50-A)⋅nH] EC/IC50 values describe the concentration resulting in the half-maximal response (halfway between top and bottom), and nΗ is the Hill coefficient.

T2 sequence (P48169 36-554): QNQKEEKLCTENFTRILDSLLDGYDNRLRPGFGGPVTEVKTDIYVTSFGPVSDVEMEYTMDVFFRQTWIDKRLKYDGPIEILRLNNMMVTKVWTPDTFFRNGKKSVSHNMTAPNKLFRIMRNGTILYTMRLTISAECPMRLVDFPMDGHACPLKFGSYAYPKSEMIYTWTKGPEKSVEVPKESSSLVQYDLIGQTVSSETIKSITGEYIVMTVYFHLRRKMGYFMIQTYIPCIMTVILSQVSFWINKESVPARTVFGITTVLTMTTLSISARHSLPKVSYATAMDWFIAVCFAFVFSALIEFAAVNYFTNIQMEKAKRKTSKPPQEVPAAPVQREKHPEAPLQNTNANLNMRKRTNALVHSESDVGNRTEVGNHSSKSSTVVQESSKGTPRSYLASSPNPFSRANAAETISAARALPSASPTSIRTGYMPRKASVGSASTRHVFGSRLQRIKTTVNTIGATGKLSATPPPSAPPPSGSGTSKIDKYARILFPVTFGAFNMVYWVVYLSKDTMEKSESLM
T2 sequence (P18505 26-474): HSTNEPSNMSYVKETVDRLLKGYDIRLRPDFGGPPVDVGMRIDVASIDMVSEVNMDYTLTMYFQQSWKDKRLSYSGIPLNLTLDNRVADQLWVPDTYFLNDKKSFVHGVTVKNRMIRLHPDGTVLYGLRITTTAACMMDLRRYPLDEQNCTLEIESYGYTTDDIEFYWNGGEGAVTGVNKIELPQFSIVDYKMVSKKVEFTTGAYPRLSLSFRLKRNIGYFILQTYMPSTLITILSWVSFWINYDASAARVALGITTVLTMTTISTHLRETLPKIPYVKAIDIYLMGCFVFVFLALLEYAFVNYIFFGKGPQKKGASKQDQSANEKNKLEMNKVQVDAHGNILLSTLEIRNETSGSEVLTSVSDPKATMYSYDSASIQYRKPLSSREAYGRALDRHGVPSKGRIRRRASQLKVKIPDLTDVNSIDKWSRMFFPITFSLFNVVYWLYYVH
T2 sequence (O14764 25-452 partner): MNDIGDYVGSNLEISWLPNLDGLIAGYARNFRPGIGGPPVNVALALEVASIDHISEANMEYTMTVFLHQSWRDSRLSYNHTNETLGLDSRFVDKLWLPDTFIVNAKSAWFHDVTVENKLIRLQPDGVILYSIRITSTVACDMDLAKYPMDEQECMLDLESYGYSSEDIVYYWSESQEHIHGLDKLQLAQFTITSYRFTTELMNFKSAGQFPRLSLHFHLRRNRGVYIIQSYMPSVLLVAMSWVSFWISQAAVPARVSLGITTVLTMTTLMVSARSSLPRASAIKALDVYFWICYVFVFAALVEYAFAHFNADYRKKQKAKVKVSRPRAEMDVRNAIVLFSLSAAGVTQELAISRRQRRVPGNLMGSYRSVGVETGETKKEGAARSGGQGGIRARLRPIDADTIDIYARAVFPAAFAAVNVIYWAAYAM

In the case of `Oc1noc(C2CCNCC2)c1CCC(c1ccccc1)c1ccccc1` [DPP-4-PIOL], the IC50 ([1]; read-out: IC50 inhibiting tonic currents) is listed as 0.87 nM and the “potency in inhibiting tonic over phasic currents” value [1] is listed as “approximately 20 times”.
With `COc1ccc(-c2ccc(=N)n(CCCC(=O)O)n2)cc1` [Gabazine, reference compound] the “interference with / quenching of the fluorescence signal” value (human BGT1) was “do not interfere”.
`COc1ccccc1NC(=O)C1CCN(Cc2ccco2)CC1` [compound 2100, 1-(furan-2-ylmethyl)-N-(2-methoxyphenyl)piperidine-4-carboxamide] showed an inhibition at 10 µM [2] greater than 50%.
